Test results published in patent publication US20250049819A1, “METHODS FOR TREATING AND PREVENTING C. DIFFICILE INFECTION” (Paratek Pharmaceuticals, Inc., priority 2016, published 2025).
Converted amounts (≈) assume the structure as drawn. Like-named read-outs stand apart in the source and are kept apart here.

How the values were obtained:
[1] = test system: C. difficile strains (N = 27); experiment: MIC by broth microdilution against C. difficile clinical isolates; assay type: cell-based; details: Clostridioides difficile, 27 isolates
Experimental: The activity of omadacycline was tested in vitro against 27 clinical isolates of C. difficile. […] The experiments were carried out using broth and agar microdilution methods according to Clinical and Laboratory Standards Institute (CLSI) guidelines. […] Each test was run in duplicate.

[2] = test system: C. difficile strain ATCC 43596; experiment: Hamster model of C. difficile-associated diarrhea, survival; assay type: in vivo
[3] = test system: C. difficile PCR ribotype 027 strain 210; experiment: In vitro human gut model, C. difficile germination, proliferation and toxin production (Example 3); assay type: cell-based; details: 430 mg/L once daily for 7 days
From the text: An in vitro gut model was used to study the effects of omadacycline instillation on both normal microflora populations and C. difficile. This gut model has been validated against gut contents from sudden death victims and provides a very close simulation of bacterial activities and composition in different areas of the hindgut (Macfarlane et al., Microb. Ecol. 35, 180-7, 1998). The model consists of three vessels aligned in series, and top-fed with a complex growth medium. All three vessels are continuously stirred, anaerobically maintained at 37° C. and regulated to reflect in vivo differences, including pH, from proximal to distal colon. The three anaerobic fermentation vessels are maintained at increasing alkalinity (from pH 5.5±0.2 for vessel 1; pH 6.2±0.2 for vessel 2; and pH 6.8±0.2 for vessel 3). The increasing alkalinity in combination with the nutrient limited conditions are designed to simulate the human gut from the proximal to the distal colon. […] At this stage, dietary ingredients, prebiotics, pathogens and/or antibiotics may be added, and the bacterial populations monitored. Specific components of the gut flora and relevant pathogens may be closely monitored and their behavior analyzed. […]
Gut microbiota bacterial populations and C. difficile total viable counts and spore counts were enumerated daily by culture on selective and non-selective agars. C. difficile populations were monitored in all three vessels, and all other bacterial groups (total obligate anaerobes, total facultative anaerobes, lactose fermenting enterobacteriaceae, enterococci, total clostridia, lactobacilli, bifidobacteria, B. fragilis group) were monitored in vessels 2 and 3 only. […] C. difficile total viable counts and spores counts were monitored using viable counting and a differential alcohol shock viable count on selective agars.
From day 14 onwards C. difficile cytotoxin was measured using a quantitative VERO cell cytotoxicity assay. […] Concentrations of omadacyline were measured by large-plate bioassay using Wilkins Chalgren agar with Kocuria rhizophila as the indicator organism.

[4] = test system: C. difficile PCR ribotype 027 strain 210; experiment: In vitro human gut model, C. difficile germination, proliferation and toxin production (Example 4); assay type: cell-based
Experimental: The gut model was inoculated with pooled fecal slurry (5 volunteers ≥60 years of age with no history of antibiotic therapy in the previous 3 months) and left for 2 weeks to allow the bacterial populations to achieve steady state. A single inoculum (˜10^7 cfu/mL) of C. difficile spores (PCR ribotype 027 strain 210) was added into vessel 1 of the gut model on day 14. One week later, on day 21, a second aliquot of C. difficile spores was added, and antibiotic instillation commenced. Model A (LHS) was exposed to moxifloxacin (43 mg/L, once daily, for 7 days) and Model B (RHS) was exposed to omadacycline (430 mg/L, once daily, for 7 days) commenced on day 21.
Bacterial populations in the gut model were monitored using selective agars to count viable bacterial colonies. Populations were monitored every other day for the first 2 weeks until the steady state was reached, and daily thereafter. C. difficile populations were monitored in all three vessels, and all other bacterial groups (total obligate anaerobes, total facultative anaerobes, lactose fermenting Enterobacteriaceae, Enterococci, total Clostridia, Lactobacilli, Bifidobacteria and B. fragilis group) were monitored in vessels 2 and 3 only. Vessel 3, which represents the distal colon, is of most physiological relevance in terms of propensity to induce CDI. C. difficile total viable counts and spores counts were monitored using viable counting and a differential alcohol shock viable count on selective agars. From day 14 onwards C. difficile cytotoxin was measured using a quantitative VERO cell cytotoxicity assay. Samples of 1 mL each were centrifuged at 16,000×g for 15 minutes, and the supernatants were removed. Six 1:10 serial dilutions (to 10^−6) of culture supernatants from the gut model were prepared. Twenty microliters of the appropriate dilution was added to VERO cell monolayers and a further 20 μL of C. sordellii antitoxin (diluted 1:10 in sterile distilled water) was placed in the corresponding antitoxin row. Monolayers were examined after 24 and 48 hours of incubation in 5% CO2, with a positive result indicated by the presence of cell rounding with concurrent neutralization of the effect by C. sordellii antitoxin. Cytotoxin titers (relative units, RU) were an arbitrary log10 scale, and the cytotoxin titer is reported in the highest dilution with >70% cell rounding, i.e. 10^0=1 RU, 10^−1=2 RU, 10^−2=3 RU. Samples were taken daily from day 21 onwards to determine antimicrobial concentrations in the gut model vessels by a bioassay. Concentrations of moxifloxacin were determined using Isosensitest agar with Escherichia coli as the indicator organism. Concentrations of omadacyline were determined using Wilkins Chalgren agar with Kocuria rhizophila as the indicator organism.

[5] = Elimination of an oral dose via the biliary/fecal pathway; assay type: in vivo
[6] = oral 50 mg/kg/day for 5 days, N=10

## CN(C)c1cc(CNCC(C)(C)C)c(O)c2c1C[C@H]1C[C@H]3[C@H](N(C)C)C(O)=C(C(N)=O)C(=O)[C@@]3(O)C(O)=C1C2=O (stereo in doubt) [Omadacycline]
[1]; read-out: MIC90 by broth dilution
  MIC90: 0.06 µg/mL (≈ 0.108 µM)
[1]; Wilkins-Chalgren broth, 48 hours anaerobic
  MIC50: 60 µg/mL (≈ 108 µM)
[1]; Wilkins-Chalgren broth, 48 hours anaerobic, read-out: Broth Microdilution MIC90
  MIC90: 60 µg/mL (≈ 108 µM)
[2]; oral 50 mg/kg/day for 5 days (clindamycin: 10 mg/kg SC pre-treatment only), N=10
  percent survival at day 2 post infection: 100%
[2]; oral 50 mg/kg/day for 5 days (clindamycin: pre-treatment only), followed up to 21 days
  Median Survival: 12 days
[2]; [6]
  percent survival by day 3: 60%
  percent survival on day 13: 40%
  percent survival on day 16: 0%
[3]; all three vessels
  C. difficile vegetative cell proliferation: no vegetative cell proliferation observed
  signs of simulated C. difficile infection: did not lead to any signs of simulated C. difficile infection
[3]; any vessels
  C. difficile toxin detection (VERO cell cytotoxicity assay): No toxin was detected
[4]; all three vessels
  C. difficile spore germination / vegetative cell proliferation: no vegetative cell proliferation observed
[4]; all vessels
  C. difficile toxin detection (VERO cell cytotoxicity assay): No toxin was detected
[4]; once daily for 7 days, omadacycline 430 mg/L, moxifloxacin 43 mg/L
  signs of simulated CDI: did not lead to any signs of simulated CDI
[5]
  proportion of the absorbed omadacycline eliminated in the gut (biliary/fecal elimination pathway): approximately 60%
